This note sets out measurements from US20260138961A1, “MODULATORS OF MITOCHONDRIAL DNA REPLICATION” (Pretzel Therapeutics, Inc., priority 2022, published 2026).

The AC50 is the concentration giving half of the maximal activity seen. As a reminder, the IC50 is the point on the concentration scale where inhibition reaches its midpoint. The low end stands for greater potency, the high end for weaker potency.

For one test, the target named is T1, POLγA:G848S (Homo sapiens, UniProt P54098, G848S).
T1 sequence (P54098 1-1239 G848S): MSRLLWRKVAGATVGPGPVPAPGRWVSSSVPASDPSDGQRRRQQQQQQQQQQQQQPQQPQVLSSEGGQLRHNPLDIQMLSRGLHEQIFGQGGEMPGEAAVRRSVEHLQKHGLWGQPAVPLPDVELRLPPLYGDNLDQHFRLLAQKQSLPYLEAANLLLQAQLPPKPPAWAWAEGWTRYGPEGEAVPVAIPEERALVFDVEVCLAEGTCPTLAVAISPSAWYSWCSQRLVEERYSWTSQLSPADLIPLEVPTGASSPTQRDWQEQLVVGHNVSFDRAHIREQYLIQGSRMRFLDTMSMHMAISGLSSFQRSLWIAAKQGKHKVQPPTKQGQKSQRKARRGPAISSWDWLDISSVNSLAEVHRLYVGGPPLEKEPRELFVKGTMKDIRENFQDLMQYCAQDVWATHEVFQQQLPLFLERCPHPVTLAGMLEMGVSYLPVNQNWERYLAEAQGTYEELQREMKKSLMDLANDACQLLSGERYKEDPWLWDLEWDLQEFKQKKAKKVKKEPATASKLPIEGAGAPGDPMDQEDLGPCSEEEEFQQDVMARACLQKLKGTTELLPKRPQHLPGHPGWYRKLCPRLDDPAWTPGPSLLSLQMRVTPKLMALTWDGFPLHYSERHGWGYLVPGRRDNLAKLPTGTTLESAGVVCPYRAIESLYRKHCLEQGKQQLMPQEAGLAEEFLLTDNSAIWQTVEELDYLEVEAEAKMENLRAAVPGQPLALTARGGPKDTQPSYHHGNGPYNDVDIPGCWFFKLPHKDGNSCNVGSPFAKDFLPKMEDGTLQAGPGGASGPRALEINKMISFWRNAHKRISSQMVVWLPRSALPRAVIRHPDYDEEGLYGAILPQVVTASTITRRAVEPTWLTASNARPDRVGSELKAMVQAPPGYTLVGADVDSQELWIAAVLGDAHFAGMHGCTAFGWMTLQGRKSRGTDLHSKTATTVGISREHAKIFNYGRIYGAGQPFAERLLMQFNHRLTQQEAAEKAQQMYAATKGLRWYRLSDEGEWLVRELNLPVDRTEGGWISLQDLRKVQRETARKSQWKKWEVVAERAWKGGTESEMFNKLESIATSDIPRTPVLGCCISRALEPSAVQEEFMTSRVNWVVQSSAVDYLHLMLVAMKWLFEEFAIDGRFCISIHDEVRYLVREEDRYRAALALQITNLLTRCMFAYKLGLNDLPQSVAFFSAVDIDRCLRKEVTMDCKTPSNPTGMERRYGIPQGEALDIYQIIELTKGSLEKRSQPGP
T1 sequence (Q9UHN1 1-485 partner): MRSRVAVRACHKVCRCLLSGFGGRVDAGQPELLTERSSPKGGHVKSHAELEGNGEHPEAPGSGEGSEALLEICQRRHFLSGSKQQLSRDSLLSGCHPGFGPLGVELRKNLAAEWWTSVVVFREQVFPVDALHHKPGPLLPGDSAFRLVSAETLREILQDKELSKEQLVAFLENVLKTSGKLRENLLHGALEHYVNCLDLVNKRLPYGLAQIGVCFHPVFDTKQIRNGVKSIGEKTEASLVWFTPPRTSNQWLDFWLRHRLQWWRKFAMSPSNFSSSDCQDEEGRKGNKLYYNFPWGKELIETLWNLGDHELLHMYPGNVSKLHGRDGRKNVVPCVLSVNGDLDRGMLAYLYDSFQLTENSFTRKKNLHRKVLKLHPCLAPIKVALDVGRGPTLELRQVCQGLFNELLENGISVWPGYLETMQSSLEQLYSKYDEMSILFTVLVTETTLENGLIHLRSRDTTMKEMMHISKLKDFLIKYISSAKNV
In words: DNA polymerization assay, POLγA:G848S mutant. The following applies: stimulation of polymerase activity, primed M13mp18 ssDNA, 37° C. 2 hours; read-out: G848S AC50. It is filed as biochemical. On the procedure: DNA Polymerization Assay to Monitor Effects on Human Wildtype POLγ and Four Disease-Causing Mutant Variants of Human POLγ.
The ability of small molecules to stimulate the polymerase activity of POLγ was analyzed in a quantitative fluorescence SYBR Green I assay with fluorescence intensity (FI) readout.
In the presence of dNTPs, wild type human POLγ and mutant derivatives thereof were incubated with single-stranded, circular M13mp18 ssDNA hybridized to a short DNA oligonucleotide that functions as a primer for initiation of DNA synthesis. POLγ and mutant derivatives thereof will extend the primer and use the M13mp18 molecule as a template to synthesize long stretches of double-stranded DNA. SYBR Green I, which is a double-stranded DNA-binding dye, was used to quantify formation of double-stranded DNA in the reaction. When bound to double-stranded DNA, SYBR Green I fluorescence increases by up to 100-fold.
The assay was performed in the 384-well plate format. Upon addition of compounds, changes in double-stranded DNA synthesis activity can be monitored by following effects on fluorescent intensity.
The reactions also contained the accessory POLγB subunit, and the human mitochondrial single-stranded DNA binding protein (mtSSB).
The DNA template mixture used in the assay contained 0.5 nM primed M13 mp18 ssDNA, 400 nM mtSSB, 0.1 mM Tris-HCl (pH 8.0), 0.1 mM dNTP, 10 mM MgCl2, 0.1 mg/mL BSA, 1 mM TCEP solution, and 0.02% Triton X-100. The DNA template mixture for the wild type protein contained either 100 μM dNTP, 1 μM dNTP, or 0.1 μM dNTP, designated in Table 2 as 100 μM, 1 μM, and 0.1 μM, respectfully.
(§1) Microplates with compounds (0.1 μL in each well) to be tested in the assay were prepared from 10 mM compound stocks in 100% DMSO, and equal amounts of DMSO without any compound were added to positive and negative control wells.
The protein mixture was dispensed (5 μL into each well) into compound plates and incubated at 37° C. for 15 minutes. After incubation, 5 μL of the DNA template mixture was dispensed into each well. The plates were then incubated at 37° C. for 2 hours.
(§2) During incubation, a combined stop buffer and detection reagent solution was prepared. The buffer contained 25 mM EDTA (pH 8.0), 0.02% Triton X-100, and SYBR Green I [Invitrogen] diluted 10,000× (for fluorescent readout). EDTA will stop the enzymatic reaction by chelating magnesium ions.

Test [1] concerns the target T2, human POLγ 3′-5′ exonuclease activity (Homo sapiens, UniProt P54098).
T2 sequence (P54098 1-1239): T1 sequence (P54098 1-1239 G848S) with S848G
T2 sequence (Q9UHN1 1-485 partner): T1 sequence (Q9UHN1 1-485 partner)
As to the kind of experiment: Exonuclease inhibition assay with human POLγ (SYBR Green I fluorescence). Format: biochemical. The following applies: POLγA 1 nM, POLγB 1.3 nM, 5 nM exonuclease template, no dNTPs, 37° C. 2.5 hours. As for the experimental part: Exonuclease inhibition assay with human POLγ.
The ability of small molecules to inhibit the 3′-5′ exonuclease activity of POLγ was analyzed in a quantitative fluorescence SYBR Green I assay with fluorescence intensity (FI) readout.
Human POLγ was incubated with a linear, partially double-stranded template containing an 85 base pair double-stranded DNA stretch and a 15 nucleotides long single-stranded 5′-tail (hereafter referred to as the “exonuclease template”). […] When bound to double-stranded DNA, SYBR Green I fluorescence increases by up to 100-fold. In the absence of deoxynucleotide triphosphates (dNTPs), the exonuclease activity of POLγ degrades the 85-mer strand, which leads to the formation of single-stranded DNA (ssDNA) and decreased fluorescent intensity. The assay was performed in a 384-well plate format.
The exonuclease template used was generated by hybridization of a 100 nucleotides long, single-stranded DNA molecule with an inverted dT at the 3′-end (5′-TTTTTTTTTATCCGGGCTCGTTATCTAAGCTGCTCTTGGTAGGCATTGACGTCCATACTGCAAATTCAGCTCTGTGCAGTTAGGCAGGAGTCTACAAGC invT-3′) to an 85 nucleotides long single-stranded DNA molecule (5′-AGCTTGTAGACTCCTGCCTAACTGCACAGAGCTGAATTTGCAGTATGGACGTCAATGCCTACCAGAGCAGCTTAGATAACGAGC-3′), using a Bio-Rad T100 Thermal Cycler. The inverted dT is characterized by a 3′-3′ linkage, which inhibits both degradation of the 3′-5′ exonuclease activity and extension by DNA polymerases.
POLγ is an heterotrimer of one POLγA subunit (harboring exonuclease and DNA polymerase activities) and two accessory POLγB subunits. Proteins used in the exonuclease assay were POLγA (NP_002684) and POLγB (NP_009146).
The protein mixture used in the assays contained POLγA (1 nM), POLγB (1.3 nM, concentration calculated as a dimer), 25 mM Tris-HCl (pH 8.0), 0.1 mg/mL bovine serum albumin, 1 mM Bond-Breaker TCEP solution (pH 7) [Thermo Fisher], 25 mM NaCl, and 0.02% Triton X-100.
The DNA template mixture used in the assay contained 5 nM of the exonuclease template, 25 mM Tris-HCl (pH 8.0), 10 mM MgCl2, 0.1 mg/mL bovine serum albumin, 1 mM Bond-Breaker TCEP solution [Thermo Fisher], and 0.02% Triton X-100.
as §1
The protein mixture containing POLγ was dispensed (5 μL in each well) into compound plates and incubated at 37° C. for 15 minutes to allow compound binding to the POLγ complex. After incubation, 5 μL of the DNA template mixture was dispensed into each well. The plates were incubated at 37° C. for 2.5 hours.
as §2
After the 2.5-hour incubation period, the SYBR Green I solution was added (10 μL) to the screening plates and the plates were incubated at room temperature in the dark for 20 minutes before the fluorescent signal was read between […] on a BMG Pherastar microtiter plate reader.

Where a chain is given by its changes, count along the chain named.

Regarding `Cc1cc(S(=O)(=O)Nc2cccc(C(=O)N[C@@H](C)c3ccccc3)c2)c(C)cc1Cl` [Example 45, (S)-3-((4-chloro-2,5-dimethylphenyl)sulfonamido)-N-(1-phenylethyl)benzamide], the AC50 on POLγA:G848S was more than 100 µM.

In test [1], `Cc1cc(S(=O)(=O)Nc2cccc(-c3nc(C4CC4)cn3C)c2)c(C)cc1Cl` [Example 186, 4-chloro-N-(3-(4-cyclopropyl-1-methyl-1H-imidazol-2-yl)phenyl)-2,5-dimethylbenzenesulfonamide] returned an IC50 of 7 µM. In other words, the single-digit micromolar range.
